Reference: BigSolDB 2.1

CC(C(=O)O)c1ccc(CC2CCCC2=O)cc1 (stereo not given)
solubility (mole fraction)
Conditions	283.15 K	288.15 K	293.15 K	298.15 K	303.15 K	308.15 K	313.15 K	318.15 K	323.15 K	328.15 K
in 1,4-dioxane	0.154	0.171	0.19	0.214	0.246	0.272	0.304	0.339	0.378	0.408
in acetonitrile	0.0234	0.0296	0.0364	0.0419	0.059	0.0847	0.113	0.166	0.233	0.318
in ethanol	0.0573	0.0676	0.0717	0.0943	0.123	0.154	0.208	0.252	0.316	0.389
in ethyl acetate	0.0521	0.0621	0.0752	0.0848	0.0996	0.13	0.162	0.19	0.244	0.301
in ethyl orthosilicate	0.0247	0.0293	0.0325	0.0365	0.043	0.0491	0.0565	0.0694	0.0796	0.0991
in isobutyl acetate	0.0261	0.0314	0.0357	0.0451	0.0583	0.0688	0.0913	0.116	0.144	0.191
in isopentyl acetate	0.0253	0.0306	0.035	0.0448	0.0561	0.0674	0.0829	0.109	0.134	0.165
in isopropanol	0.0589	0.0747	0.0874	0.0966	0.128	0.145	0.189	0.224	0.277	0.339
in isopropyl acetate	0.0298	0.0373	0.0443	0.056	0.0694	0.0819	0.11	0.134	0.176	0.229
in methanol	0.0694	0.0783	0.0897	0.118	0.163	0.216	0.283	0.364	0.496	0.628
in methyl acetate	0.0568	0.0659	0.0797	0.0895	0.11	0.136	0.17	0.205	0.255	0.325
in n-butyl acetate	0.0284	0.0338	0.0418	0.0527	0.0621	0.0764	0.096	0.122	0.156	0.205
in n-propanol	0.0526	0.0643	0.0792	0.0905	0.116	0.139	0.184	0.223	0.269	0.338
in n-propyl acetate	0.0384	0.0483	0.0529	0.0631	0.0814	0.0978	0.127	0.155	0.199	0.261
